Data: ChEMBL document CHEMBL6074642, “Natural and Bioinspired Lipidic Alkynylcarbinols as Leishmanicidal, Antiplasmodial, Trypanocidal, Fungicidal, Antibacterial, and Antimycobacterial Agents” (J Nat Prod, 2024)

Tested on: Mycobacterium tuberculosis
Assay: Antibacterial activity against multi-drug resistant Mycobacterium tuberculosis assessed as reduction in microbial growth
Type: functional

In the case of `C=C[C@@H](O)C#CC#C[C@@H](O)/C=C\CCCCCCC` [FALCARINDIOL], the MIC is reported as 32 µg/mL.
